From paper PMC11073699, “Odorant receptors for floral- and plant-derived volatiles in the yellow fever mosquito, Aedes aegypti (Diptera: Culicidae)” (PLOS ONE, 2024)
Where “and” joins values, the source holds several entries; their conditions need not be identical. Identical values can stand only once.

How the values were obtained:
Type in all cases: cell-based
[1] = target: T1, AaegOR15 (Aedes aegypti, UniProt A0A6B9QIR2); assay: Two-electrode voltage clamp of Xenopus laevis oocytes expressing AaegOR15/Orco (blends, unitary compounds, concentration-response); details: unitary compounds of Alcohols 2; for Raw data (Responses in nA), compounds of blend Alcohols 2: individual oocytes 1-10 (replicates)
T1 sequence (A0A6B9QIR2 1-390): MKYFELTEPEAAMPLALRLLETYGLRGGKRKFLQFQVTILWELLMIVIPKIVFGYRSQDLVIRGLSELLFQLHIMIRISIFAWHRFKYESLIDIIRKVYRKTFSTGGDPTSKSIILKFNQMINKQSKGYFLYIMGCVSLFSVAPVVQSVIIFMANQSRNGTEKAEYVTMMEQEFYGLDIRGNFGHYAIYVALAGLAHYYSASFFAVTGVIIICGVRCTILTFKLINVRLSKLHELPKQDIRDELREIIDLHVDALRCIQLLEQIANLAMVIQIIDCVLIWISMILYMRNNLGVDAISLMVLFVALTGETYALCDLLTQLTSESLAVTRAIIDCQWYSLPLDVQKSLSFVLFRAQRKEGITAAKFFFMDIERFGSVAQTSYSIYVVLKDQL
T1 sequence (Q178U6 1-478 partner): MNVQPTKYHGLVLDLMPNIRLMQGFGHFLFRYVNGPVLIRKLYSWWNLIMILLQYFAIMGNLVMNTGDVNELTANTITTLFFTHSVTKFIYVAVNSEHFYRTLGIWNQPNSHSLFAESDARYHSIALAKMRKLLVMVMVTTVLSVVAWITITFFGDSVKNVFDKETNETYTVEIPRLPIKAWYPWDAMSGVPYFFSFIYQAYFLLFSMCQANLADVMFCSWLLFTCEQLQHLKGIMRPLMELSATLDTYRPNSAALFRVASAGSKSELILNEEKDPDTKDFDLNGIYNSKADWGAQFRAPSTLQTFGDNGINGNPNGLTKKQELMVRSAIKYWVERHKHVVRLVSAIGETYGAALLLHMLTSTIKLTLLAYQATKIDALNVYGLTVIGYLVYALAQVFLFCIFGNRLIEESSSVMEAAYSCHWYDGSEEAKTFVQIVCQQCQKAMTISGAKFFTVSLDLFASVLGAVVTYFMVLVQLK
Outline: (§1)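 Xenopus oocytes injected with cRNA for AaegOR plus Orco, kept 48–72 hrs at 18°C, clamped at -80 mV by TEVC. Odorant blends or single compounds (10% DMSO dilutions) perfused 10–15 s; concentration-response from 10^-3M to 10^-9M, ≥7 responding oocytes, ≥2 biological replicates.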

[2] = target: T2, AaegOR13 (Aedes aegypti, UniProt Q16Z13); assay: Two-electrode voltage clamp of Xenopus laevis oocytes expressing AaegOR13/Orco (blends, unitary compounds, concentration-response); details: unitary compounds
T2 sequence (Q16Z13 1-389): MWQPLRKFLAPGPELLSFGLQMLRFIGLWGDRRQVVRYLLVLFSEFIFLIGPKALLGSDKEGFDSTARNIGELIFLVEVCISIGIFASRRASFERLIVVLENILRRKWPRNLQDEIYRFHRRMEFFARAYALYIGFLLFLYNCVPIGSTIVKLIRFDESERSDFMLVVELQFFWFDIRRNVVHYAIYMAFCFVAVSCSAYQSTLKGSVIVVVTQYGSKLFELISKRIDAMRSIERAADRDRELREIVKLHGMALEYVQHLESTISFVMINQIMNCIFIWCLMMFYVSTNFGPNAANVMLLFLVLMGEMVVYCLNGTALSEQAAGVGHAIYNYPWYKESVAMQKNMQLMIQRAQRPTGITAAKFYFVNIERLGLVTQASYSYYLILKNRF
T2 sequence (Q178U6 1-478 partner): T1 sequence (Q178U6 1-478 partner)
Outline: as §1

[3] = target: T3, AaegOR28 (Aedes aegypti, UniProt Q0IGE1); assay: Two-electrode voltage clamp of Xenopus laevis oocytes expressing AaegOR28/Orco (blends, unitary compounds, concentration-response); details: AaegOR28, compounds of blend Alcohols 3; for Raw Data (Responses in nA), Alcohols 3 unitary compounds: individual oocytes 1-10
T3 sequence (Q0IGE1 1-394): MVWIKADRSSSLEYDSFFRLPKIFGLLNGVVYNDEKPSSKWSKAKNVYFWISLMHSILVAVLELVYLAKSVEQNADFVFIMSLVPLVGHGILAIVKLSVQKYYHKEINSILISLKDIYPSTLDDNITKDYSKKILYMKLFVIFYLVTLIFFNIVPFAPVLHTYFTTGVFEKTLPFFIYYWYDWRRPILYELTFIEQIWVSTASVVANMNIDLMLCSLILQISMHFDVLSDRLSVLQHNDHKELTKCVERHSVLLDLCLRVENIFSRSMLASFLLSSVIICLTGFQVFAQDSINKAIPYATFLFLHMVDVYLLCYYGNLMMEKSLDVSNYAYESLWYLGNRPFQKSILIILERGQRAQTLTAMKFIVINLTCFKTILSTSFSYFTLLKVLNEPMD
T3 sequence (Q178U6 1-478 partner): T1 sequence (Q178U6 1-478 partner)
From the text: (§2) The coding regions of ten AaegOR genes of interest (S3 File) and AaegOrco were synthesized by Twist Bioscience (San Francisco, CA, USA) and cloned into the pENTR plasmid. The Gateway LR directional cloning system (Invitrogen Corp., Carlsbad, CA, USA) was utilized to subclone AaegOR coding regions into the pSP64t-RFA oocyte expression plasmid. Plasmids were purified using the GeneJet Plasmid Miniprep Kit (ThermoFisher Scientific, Waltham, MA, USA). Purified plasmids were sequenced in both directions to confirm coding regions.
(§3) Chemical compounds (S6 File) used in the deorphanization of AaegORs were purchased from Acros Organics (Morris, NJ, USA), Alfa Aesar (Ward Hill, MA, USA), and ThermoFisher Scientific (Waltham, MA, USA) at the highest purity available. Compounds were stored as 1M stocks in 100% DMSO. Serial dilutions of each compound were prepared in 10% DMSO and blended by chemical class.
(§4) pSP64t-RFA: AaegOR clones were linearized using Xbal, and cRNAs were synthesized using the mMESSAGE mMACHINE ® SP6 kit (Life Technologies, Carlsbad, CA, USA). Xenopus laevis stage V-VII oocytes purchased from Xenopus1 (Dexter, MI, USA) were stored at 18°C in Incubation medium (ND96 96 with 5% dialyzed horse serum, 50μg/mL gentamycin, 100μg/mL streptomycin, 100μg/mL penicillin, and 550μg/mL sodium pyruvate). 30nL of cRNA was injected into multiple oocytes using a microinjection syringe pump (World Precision Instruments, Sarasota, FL, USA) maintained at 18°C for 48–72 hrs. Odorant blends were perfused across individual oocytes for 10–15 seconds, held at a resting membrane potential of -80 mV using an OC-725C oocyte clamp (Warner Instruments, LLC, Hamden, CT, USA). Induced currents were measured indirectly using the two-electrode voltage clamp technique (TEVC). Following each stimulus, currents were allowed to return to baseline before further stimulation. Data was captured using the Digidata 1550 B digitizer and PClamp10 software (Molecular Devices, San Jose, CA, USA). Concentration-response curves were generated by perfusing unitary odorants over oocytes at increasing concentrations from [10^-3M] to [10^-9M]. Data were analyzed using GraphPad Prism 8 (GraphPad Software Inc., La Jolla, CA, USA). At least two biological replicates were conducted at each concentration and for each compound. Data for at least seven oocytes responding to each compound was analyzed (S7 File).

[4] = target: T4, AaegOR10 (Aedes aegypti, UniProt Q177X3); assay: Two-electrode voltage clamp of Xenopus laevis oocytes expressing AaegOR10/Orco (blends, unitary compounds, concentration-response); details: unitary compounds of Indoles 1; individual oocytes 1-9 (replicates)
T4 sequence (Q177X3 1-375): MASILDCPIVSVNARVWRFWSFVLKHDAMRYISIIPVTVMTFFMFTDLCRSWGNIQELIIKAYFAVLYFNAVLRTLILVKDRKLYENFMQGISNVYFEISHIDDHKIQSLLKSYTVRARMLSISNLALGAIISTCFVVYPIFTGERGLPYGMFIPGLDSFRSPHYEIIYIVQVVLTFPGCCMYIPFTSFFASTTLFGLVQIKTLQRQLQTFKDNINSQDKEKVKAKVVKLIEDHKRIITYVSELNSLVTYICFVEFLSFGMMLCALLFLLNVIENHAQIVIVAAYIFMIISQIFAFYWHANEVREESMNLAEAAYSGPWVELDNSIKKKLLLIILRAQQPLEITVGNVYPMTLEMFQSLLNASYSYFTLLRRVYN
T4 sequence (Q178U6 1-478 partner): T1 sequence (Q178U6 1-478 partner)
From the text: as §2, §3, §4

[5] = target: T5, AaegOR55 (Aedes aegypti, UniProt Q16T12); assay: Two-electrode voltage clamp of Xenopus laevis oocytes expressing AaegOR55/Orco (blends, unitary compounds, concentration-response); details: AaegOR55; compounds of blend Indoles 1; individual oocytes (Oocyte 1-7)
T5 sequence (Q16T12 10-392): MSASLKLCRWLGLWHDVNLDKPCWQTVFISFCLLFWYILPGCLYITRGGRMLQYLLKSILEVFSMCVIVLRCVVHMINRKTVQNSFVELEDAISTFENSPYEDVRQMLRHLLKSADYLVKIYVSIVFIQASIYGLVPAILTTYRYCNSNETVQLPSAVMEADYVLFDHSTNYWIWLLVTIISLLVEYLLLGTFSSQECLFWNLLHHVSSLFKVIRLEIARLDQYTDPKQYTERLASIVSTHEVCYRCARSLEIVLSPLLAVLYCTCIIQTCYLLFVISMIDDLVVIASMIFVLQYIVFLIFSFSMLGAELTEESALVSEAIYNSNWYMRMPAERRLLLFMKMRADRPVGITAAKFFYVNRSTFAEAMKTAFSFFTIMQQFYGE
T5 sequence (Q178U6 1-478 partner): T1 sequence (Q178U6 1-478 partner)
From the text: as §2, §3, §4

Structure (SMILES) | Raw data (Responses in nA), compounds of blend Alcohols 2 [1] | Raw data (Responses in nA), unitary compounds of Indoles 1, Alcohols 1, Alcohols 3 ([2]; individual oocytes 1-7) | Raw Data (Responses in nA), Alcohols 3 unitary compounds [3] | Normalized response, compounds of blend Alcohols 2, Average ([1]; average of 10 oocytes, 1-hexanol = 100) | Normalized response, compounds of blend Alcohols 2 ([1]; individual oocytes 1-10, normalized to the largest response of each oocyte (1-hexanol = 100)) | Normalized response, unitary compounds, Average ([2]; average of oocytes 1-7) | Normalized response, unitary compounds of Indoles 1, Alcohols 1, Alcohols 3 ([2]; normalized per oocyte, individual oocytes 1-7) | Normalized response, Average, Alcohols 3 unitary compounds ([3]; average of 10 oocytes) | Normalized response, Alcohols 3 unitary compounds ([3]; individual oocytes 1-10, normalized to largest response of each oocyte) | Raw response, unitary compounds of blend Indoles 1 [4] | Raw Data (Responses in nA), Indoles 1 unitary compounds [5]
CC12CCC(CC1)C(C)(C)O2 [1,8-cineole] | 0.0 nA (3×) and 5.0 nA (3×) and 10.0 nA (4×) | 0.0 nA | 5 nA and 0 nA (9×) |  |  |  |  |  |  |  | 
C=CCc1ccc(O)c(OC)c1 [Eugenol] | 0.0 nA (2×) and 5.0 nA and 10.0 nA (3×) and 15.0 nA (2×) and 30.0 nA and 20.0 nA | 20.0 nA and 430.0 nA and 105.0 nA and 220.0 nA and 160.0 nA (2×) and 100.0 nA | 0 nA |  |  |  |  |  |  |  | 
C=CC(C)(O)CC/C=C(\C)CC/C=C(\C)CCC=C(C)C (centres unmarked) [Geranyl Linalool] | 0.0 nA (7×) and 10.0 nA (3×) | 0.0 nA | 0 nA | 0.4 | 0.0 (7×) and 1.3 and 0.9 and 1.7 | 0.0 | 0.0 | 0.0 | 0.0 (9×) and 0 |  | 
O=Cc1c[nH]c2ccccc12 [indole-3-carboxaldehyde] |  |  |  |  |  |  |  |  |  | 80.0 nA and 30.0 nA and 100.0 nA and 20.0 nA (2×) and 70.0 nA and 0.0 nA (3×) | 50.0 nA and 25.0 nA (2×) and 40.0 nA and 20.0 nA and 45.0 nA and 35.0 nA
